Tests used:
SKBR3 cells [1] = experiment: MTT proliferation assay, SKBR3; assay type: cell-based, human; details: Homo sapiens, SK-BR-3
MCF10A cells = experiment: MTT cytotoxicity assay, non-tumorigenic MCF10A; assay type: cell-based, human
BT-474 cells [2] = experiment: Wound healing assay, BT-474; assay type: cell-based; details: Homo sapiens
Description: (§1) In a sterile flat-bottom 24-well plate, SKBR3 and BT-474 breast cancer cells were plated at a density of 1 × 10^5 cells/well. […] Wounds were then inflicted across each cell monolayer using a sterile 200 µL pipette tip. Media was aspirated, and cells were washed twice with PBS to remove floating cells and cell debris. Fresh serum-free media was placed up against the well wall to cover the bottom of the well and prevent further cell detachment. Incubation of cells was resumed for five hours at 37 °C in a humidified CO2 incubator. Subsequently, the media were substituted with fresh ones containing various doses of liquiritin, oroxin B, or DMSO as a vehicle control (3 replicates/group) along with EGF (100 ng/mL) as a scattering factor. Wound closure was microscopically monitored in vehicle-treated control wells, and the time frame for wound closure was determined to be 72 h. Before the closure of wounds in the vehicle-treated control wells, the media were removed, cells were washed with PBS and completely fixed using cold methanol for 20 min at 4 °C. An inverted VistaVision microscope was used to take pictures of the wounds monitored at zero and 72 h with a VistaVision Still camera (VWR, Radnor, PA).
(§2) Results were expressed as a percentage of cell migration according to the following Equation[16]: [drawing 2]
(§3) Where Tt is the wound thickness in treatment wells, TDMSO is the thickness of the wound in control wells treated by DMSO, and Tº is the thickness of the wound at zero time. Wound thickness was calculated in three or more randomly selected fields per treatment group.

SKBR3 cells [3] = experiment: Wound healing assay, SKBR3; assay type: cell-based; details: Homo sapiens, SK-BR-3
Description: as §1, §2, §3

BT-474 cells [4] = experiment: Cell cycle analysis by PI flow cytometry, BT-474; assay type: cell-based, human; details: BT-474, 3.5 µM, 24 h (control 59%)
Description: To evaluate liquiritin’s impact on cell cycle progression, a propidium iodide (PI)-based flow cytometry assay was performed using the Cell Cycle Analysis Kit (ab139418, Abcam) following the manufacturer’s protocol. BT-474 and SKBR3 cells were seeded into 100 mm culture plates at a density of 1 × 10^6 cells/plate in RPMI 1640 medium supplemented with 10% FBS and incubated overnight. To synchronize cells in the G1 phase, cultures were rinsed twice with PBS and maintained in serum-reduced medium (0.5% FBS) for 48 h. Synchronized cells were subsequently treated with liquiritin at concentrations equivalent to its respective IC50 values (determined via prior proliferation assays) in serum-free media for 24 h.
Post-treatment, cells were detached using trypsin, washed with ice-cold PBS, and fixed in 66% ethanol at 4 °C for 2 h. Fixed cells were rehydrated in PBS and stained with a freshly prepared PI solution (1 mg/mL PI, 5,500 U/mL RNase A in PBS) for 30 min at 4 °C in the dark. DNA content was quantified using a BD FACS Calibur flow cytometer (BD Biosciences, San Jose, CA), with 10,000 events analyzed per sample. Cell cycle phase distributions (G0/G1, S, G2/M) were calculated from histogram data generated by Cell Quest software (BD Biosciences). All assays were performed in triplicate to ensure reproducibility.

SKBR3 cells [5] = experiment: Annexin V-FITC/PI apoptosis detection, SKBR3; assay type: cell-based, human; details: SKBR3, 6.4 µM, 48 h
Description: To evaluate the induction of apoptosis, the translocation of phosphatidylserine to the outer cell membrane, as a hallmark of early apoptosis, was detected by the binding of annexin V, using the Annexin V-FITC Early Apoptosis Detection Kit (BD BioVision). Cells were seeded at a density of 5 × 10^5 cells per 100 mm culture plate and allowed to adhere overnight. […] At the end of the treatment period, cells were harvested by trypsinization, washed twice with ice-cold PBS, and resuspended in 500 µL of chilled 1X Annexin V Binding Buffer. To each sample, 5 µL of Annexin V-FITC conjugate and 5 µL of propidium iodide (PI, 50 µg/mL) were added. The cell suspensions were incubated for 5 minutes on ice in the dark to allow for staining.
Flow cytometric analysis was performed using excitation at 488 nm and emission at 530 nm for FITC detection (FL1 channel) and phycoerythrin emission settings for PI detection (FL2 channel). Data acquisition and analysis were facilitated by Cell Quest software (BD Biosciences), with dot plots divided into four quadrants to distinguish different cell populations: lower left (LL) for viable, non-apoptotic cells (negative for both annexin V and PI); lower right (LR) for early apoptotic cells (annexin V-positive, PI-negative); upper left (UL) for dead or necrotic cells (PI-positive, annexin V-negative); and upper right (UR) for late apoptotic cells (double-positive). All assays were conducted in triplicate to ensure reliability and reproducibility.

EGFR (ErbB1) = EGFR (ErbB1) (Homo sapiens, UniProt P00533); experiment: SelectScreen Z'-LYTE kinase profiling; assay type: biochemical
Description: (§4) Liquiritin was screened at 0.1 µM dose against a panel of 15 human kinases using SelectScreen® kinase profiling services offered by ThermoFisher Scientific™ (Madison, WI, USA). The percent inhibition of Liquiritin was assessed against each kinase in an automated high-throughput screening system using the time-resolved fluorescence resonance energy transfer Z´-LYTE™ kinase assay. Technology overview, protocols, and assay conditions are accessible at https://x.gd/UgBBB.

FLT1 (VEGFR1) = FLT1 (VEGFR1) (Homo sapiens, UniProt P17948); experiment: SelectScreen Z'-LYTE kinase profiling; assay type: biochemical
Description: as §4

IGF1R = IGF1R (Homo sapiens, UniProt P08069); experiment: SelectScreen Z'-LYTE kinase profiling; assay type: biochemical
Description: as §4

MET (cMet) = MET (cMet) (Homo sapiens, UniProt P08581); experiment: SelectScreen Z'-LYTE kinase profiling; assay type: biochemical
Description: as §4

PDGFRB (PDGFR beta) = PDGFRB (PDGFR beta) (Homo sapiens, UniProt P09619); experiment: SelectScreen Z'-LYTE kinase profiling; assay type: biochemical
Description: as §4

ROS1 = ROS1 (Homo sapiens, UniProt P08922); experiment: SelectScreen Z'-LYTE kinase profiling; assay type: biochemical
Description: as §4

Sequence of EGFR (ErbB1) (P00533 25-1210): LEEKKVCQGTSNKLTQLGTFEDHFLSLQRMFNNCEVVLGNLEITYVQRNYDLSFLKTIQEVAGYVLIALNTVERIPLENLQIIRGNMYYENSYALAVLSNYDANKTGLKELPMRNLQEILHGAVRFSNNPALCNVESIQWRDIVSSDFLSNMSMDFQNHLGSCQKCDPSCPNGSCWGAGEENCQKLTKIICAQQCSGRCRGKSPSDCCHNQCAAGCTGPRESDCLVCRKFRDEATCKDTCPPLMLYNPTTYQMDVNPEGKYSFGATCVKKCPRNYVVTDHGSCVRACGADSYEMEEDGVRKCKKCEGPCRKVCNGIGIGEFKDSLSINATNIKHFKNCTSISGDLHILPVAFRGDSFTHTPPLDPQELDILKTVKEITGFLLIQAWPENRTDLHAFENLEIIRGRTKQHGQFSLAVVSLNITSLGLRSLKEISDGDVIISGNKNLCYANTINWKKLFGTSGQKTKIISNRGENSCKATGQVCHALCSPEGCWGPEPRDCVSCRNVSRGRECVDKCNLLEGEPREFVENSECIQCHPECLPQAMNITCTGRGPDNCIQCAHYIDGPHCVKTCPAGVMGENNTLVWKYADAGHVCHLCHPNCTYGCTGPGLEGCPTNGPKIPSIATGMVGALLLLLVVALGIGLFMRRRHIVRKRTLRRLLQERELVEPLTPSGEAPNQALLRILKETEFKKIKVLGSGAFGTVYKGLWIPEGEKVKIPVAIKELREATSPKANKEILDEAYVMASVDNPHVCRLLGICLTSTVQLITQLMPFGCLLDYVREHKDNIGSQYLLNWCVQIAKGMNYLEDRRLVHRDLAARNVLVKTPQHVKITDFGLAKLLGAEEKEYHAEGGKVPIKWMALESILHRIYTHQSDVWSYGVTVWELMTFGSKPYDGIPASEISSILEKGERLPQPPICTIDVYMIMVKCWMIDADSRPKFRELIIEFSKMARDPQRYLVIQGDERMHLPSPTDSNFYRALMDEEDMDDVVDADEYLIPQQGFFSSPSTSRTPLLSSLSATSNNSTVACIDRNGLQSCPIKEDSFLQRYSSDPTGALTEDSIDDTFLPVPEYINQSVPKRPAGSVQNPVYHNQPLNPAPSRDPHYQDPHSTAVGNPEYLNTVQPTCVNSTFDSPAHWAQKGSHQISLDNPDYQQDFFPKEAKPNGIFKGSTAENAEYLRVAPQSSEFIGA
Sequence of MET (cMet) (P08581 25-1390): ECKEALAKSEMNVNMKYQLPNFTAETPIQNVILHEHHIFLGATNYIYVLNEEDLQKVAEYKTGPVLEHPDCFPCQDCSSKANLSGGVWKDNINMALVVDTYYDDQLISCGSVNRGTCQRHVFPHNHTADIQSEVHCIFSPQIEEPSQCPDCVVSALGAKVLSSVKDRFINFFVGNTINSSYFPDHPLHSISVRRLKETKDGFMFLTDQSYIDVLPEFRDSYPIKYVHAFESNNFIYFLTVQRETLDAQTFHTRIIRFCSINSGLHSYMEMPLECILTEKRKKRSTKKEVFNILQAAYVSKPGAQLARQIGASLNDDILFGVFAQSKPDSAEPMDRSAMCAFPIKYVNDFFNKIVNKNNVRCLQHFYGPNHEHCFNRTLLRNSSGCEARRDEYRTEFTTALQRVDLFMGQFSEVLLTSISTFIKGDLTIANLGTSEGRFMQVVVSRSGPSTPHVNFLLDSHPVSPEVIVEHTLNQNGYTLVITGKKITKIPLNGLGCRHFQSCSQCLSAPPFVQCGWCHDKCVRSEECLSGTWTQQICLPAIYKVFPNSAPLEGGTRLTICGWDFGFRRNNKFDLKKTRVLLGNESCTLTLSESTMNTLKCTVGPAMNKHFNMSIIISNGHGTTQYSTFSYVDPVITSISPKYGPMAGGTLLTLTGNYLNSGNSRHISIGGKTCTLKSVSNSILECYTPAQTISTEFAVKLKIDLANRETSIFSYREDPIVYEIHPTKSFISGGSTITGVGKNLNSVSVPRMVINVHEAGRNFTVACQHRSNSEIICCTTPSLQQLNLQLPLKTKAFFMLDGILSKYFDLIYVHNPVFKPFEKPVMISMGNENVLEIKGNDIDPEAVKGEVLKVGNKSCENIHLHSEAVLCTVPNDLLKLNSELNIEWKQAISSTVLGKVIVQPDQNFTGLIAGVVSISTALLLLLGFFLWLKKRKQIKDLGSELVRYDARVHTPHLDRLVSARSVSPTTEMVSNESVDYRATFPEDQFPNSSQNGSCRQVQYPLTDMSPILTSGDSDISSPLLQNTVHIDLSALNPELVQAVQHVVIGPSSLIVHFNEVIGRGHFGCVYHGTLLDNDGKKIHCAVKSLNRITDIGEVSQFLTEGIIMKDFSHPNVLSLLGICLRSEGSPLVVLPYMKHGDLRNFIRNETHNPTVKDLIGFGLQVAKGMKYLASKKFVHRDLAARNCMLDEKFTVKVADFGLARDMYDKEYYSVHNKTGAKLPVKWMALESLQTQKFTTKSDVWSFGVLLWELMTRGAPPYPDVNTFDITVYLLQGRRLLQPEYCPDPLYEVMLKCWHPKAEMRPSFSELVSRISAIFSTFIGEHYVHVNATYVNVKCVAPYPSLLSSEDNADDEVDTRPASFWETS
Sequence of FLT1 (VEGFR1) (P17948 27-1338): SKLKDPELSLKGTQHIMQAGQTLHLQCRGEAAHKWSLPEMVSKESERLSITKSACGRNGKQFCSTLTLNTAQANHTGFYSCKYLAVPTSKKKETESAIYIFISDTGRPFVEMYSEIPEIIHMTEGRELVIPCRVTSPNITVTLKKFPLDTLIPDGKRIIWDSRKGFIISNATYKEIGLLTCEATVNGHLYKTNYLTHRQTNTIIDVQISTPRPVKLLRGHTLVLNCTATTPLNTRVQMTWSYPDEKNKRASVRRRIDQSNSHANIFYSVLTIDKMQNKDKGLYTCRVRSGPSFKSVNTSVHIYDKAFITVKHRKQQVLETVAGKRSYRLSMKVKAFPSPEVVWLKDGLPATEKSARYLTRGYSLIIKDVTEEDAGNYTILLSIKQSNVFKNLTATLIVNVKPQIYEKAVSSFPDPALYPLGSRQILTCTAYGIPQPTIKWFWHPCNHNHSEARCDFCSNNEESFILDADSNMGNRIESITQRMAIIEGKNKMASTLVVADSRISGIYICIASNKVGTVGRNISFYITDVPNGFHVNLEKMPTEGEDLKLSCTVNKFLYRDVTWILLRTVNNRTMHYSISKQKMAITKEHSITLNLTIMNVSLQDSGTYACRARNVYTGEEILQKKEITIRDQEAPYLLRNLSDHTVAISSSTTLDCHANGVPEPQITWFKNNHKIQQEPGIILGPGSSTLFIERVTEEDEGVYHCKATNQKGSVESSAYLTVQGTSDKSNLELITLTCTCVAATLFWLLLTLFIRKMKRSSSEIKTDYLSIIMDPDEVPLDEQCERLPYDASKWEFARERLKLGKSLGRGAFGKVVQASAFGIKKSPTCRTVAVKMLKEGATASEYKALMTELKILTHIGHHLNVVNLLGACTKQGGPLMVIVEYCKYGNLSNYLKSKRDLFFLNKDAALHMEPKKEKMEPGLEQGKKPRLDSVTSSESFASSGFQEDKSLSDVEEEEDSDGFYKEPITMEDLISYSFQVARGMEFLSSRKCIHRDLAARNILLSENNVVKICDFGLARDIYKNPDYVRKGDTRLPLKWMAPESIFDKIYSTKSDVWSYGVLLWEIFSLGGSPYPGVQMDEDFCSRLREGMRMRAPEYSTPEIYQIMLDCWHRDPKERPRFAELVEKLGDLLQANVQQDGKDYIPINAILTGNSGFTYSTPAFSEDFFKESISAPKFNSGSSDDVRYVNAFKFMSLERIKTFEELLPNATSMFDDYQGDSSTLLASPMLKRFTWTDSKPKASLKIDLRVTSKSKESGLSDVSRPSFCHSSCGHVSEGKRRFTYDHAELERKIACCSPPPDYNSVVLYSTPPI
Sequence of PDGFRB (PDGFR beta) (P09619 33-1106): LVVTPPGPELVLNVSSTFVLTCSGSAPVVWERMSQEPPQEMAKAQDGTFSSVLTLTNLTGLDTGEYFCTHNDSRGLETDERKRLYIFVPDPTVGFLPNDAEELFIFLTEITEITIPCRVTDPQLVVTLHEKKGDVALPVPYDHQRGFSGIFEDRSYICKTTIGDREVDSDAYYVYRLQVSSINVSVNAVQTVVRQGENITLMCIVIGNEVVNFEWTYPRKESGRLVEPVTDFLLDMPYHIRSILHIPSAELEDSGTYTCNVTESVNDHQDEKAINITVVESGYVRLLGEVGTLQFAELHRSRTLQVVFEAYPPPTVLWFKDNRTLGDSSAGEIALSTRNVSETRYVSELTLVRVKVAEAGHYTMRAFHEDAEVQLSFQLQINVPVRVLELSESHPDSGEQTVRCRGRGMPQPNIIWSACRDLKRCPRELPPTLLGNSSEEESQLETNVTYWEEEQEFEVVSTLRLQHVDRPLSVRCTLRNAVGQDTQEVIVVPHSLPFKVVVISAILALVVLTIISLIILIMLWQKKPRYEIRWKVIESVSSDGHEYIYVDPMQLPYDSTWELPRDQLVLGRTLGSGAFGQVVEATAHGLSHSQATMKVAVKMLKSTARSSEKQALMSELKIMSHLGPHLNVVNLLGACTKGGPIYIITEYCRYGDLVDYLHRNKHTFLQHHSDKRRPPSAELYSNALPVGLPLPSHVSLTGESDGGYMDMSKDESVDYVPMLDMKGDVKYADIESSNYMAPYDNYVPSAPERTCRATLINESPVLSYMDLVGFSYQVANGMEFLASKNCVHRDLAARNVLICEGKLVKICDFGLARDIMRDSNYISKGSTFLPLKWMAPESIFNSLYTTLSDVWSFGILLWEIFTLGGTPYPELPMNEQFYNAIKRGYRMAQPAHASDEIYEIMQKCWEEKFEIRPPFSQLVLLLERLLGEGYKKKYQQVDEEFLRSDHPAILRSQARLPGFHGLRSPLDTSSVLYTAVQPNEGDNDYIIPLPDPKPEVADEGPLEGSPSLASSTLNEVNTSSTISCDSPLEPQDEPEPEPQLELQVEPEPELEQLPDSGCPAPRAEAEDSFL

IC50 (SKBR3 cells [1]; SKBR3, MTT, 48 h (Table S8), read-out: Cell growth inhibition IC50): 6.4 µM
IC50 (SKBR3 cells [1]; SKBR3, Table S9, read-out: IC50): 6.4 ± 0.2 µM
IC50 (BT-474 cells [2]; BT-474, wound healing, read-out: IC50, cell migration): 10.4 µM
IC50 (SKBR3 cells [3]; SKBR3, wound healing, read-out: IC50, cell migration): 16.9 µM
inhibition at 0.1 µM (EGFR (ErbB1)): > 80%
Mean inhibition (%) (EGFR (ErbB1); 0.1 µM): 99%
inhibition at 0.1 µM (FLT1 (VEGFR1)): 2%
inhibition at 0.1 µM (IGF1R): 4%
inhibition at 0.1 µM (MET (cMet)): 5%
inhibition at 0.1 µM (PDGFRB (PDGFR beta)): 4%
inhibition at 0.1 µM (ROS1): 8%
SMILES: O=C1C[C@@H](c2ccc(O[C@@H]3O[C@H](CO)[C@@H](O)[C@H](O)[C@H]3O)cc2)Oc2cc(O)ccc21 [Liquiritin]
IC50 (MCF10A cells; Homo sapiens, MCF-10A, MCF10A, MTT, 24 h): 27.9 ± 1.1 µM
selectivity index (SI) (MCF10A cells; IC50 MCF10A / IC50 BT-474): 8
selectivity index (SI) (MCF10A cells; IC50 MCF10A / IC50 SKBR3): 4.4
inhibition at 2 µM (BT-474 cells [2]; BT-474, 2 µM, 72 h, read-out: inhibition of cell migration): 20%
inhibition at 3 µM (BT-474 cells [2]; BT-474, 3 µM, 72 h, read-out: inhibition of cell migration): 25.6%
inhibition at 5 µM (BT-474 cells [2]; BT-474, 5 µM, 72 h, read-out: inhibition of cell migration): 31.2%
inhibition at 10 µM (BT-474 cells [2]; BT-474, 10 µM, 72 h, read-out: inhibition of cell migration): 50.6%
inhibition at 3 µM (SKBR3 cells [3]; SKBR3, 3 µM, 72 h, read-out: inhibition of cell migration): 22.1%
inhibition at 6 µM (SKBR3 cells [3]; SKBR3, 6 µM, 72 h, read-out: inhibition of cell migration): 32.8%
inhibition at 10 µM (SKBR3 cells [3]; SKBR3, 10 µM, 72 h, read-out: inhibition of cell migration): 38.2%
inhibition at 20 µM (SKBR3 cells [3]; SKBR3, 20 µM, 72 h, read-out: inhibition of cell migration): 54.1%
proportion of cells in G1 phase (BT-474 cells [4]): ~88%
early apoptotic population (SKBR3 cells [5]): 7.33%
late apoptosis (Annexin V+/PI+) cells (SKBR3 cells [5]): 14.59%
necrotic population (SKBR3 cells [5]): 2.84%

Source: article PMC12267471, “Discovery of natural scaffolds as HER2 inhibitors for breast cancer: virtual screening, molecular dynamics, and biological characterization with selectivity profiling” (Scientific Reports, 2025)
